Results reported in patent publication US12509431B2, “1,4-dihydroquinazolinone compounds and uses thereof” (Edgewise Therapeutics, Inc., priority 2022, dated 2025).
Where two headings read alike, the source gives them in different places.

System: isoflurane-anesthetized SD rats
Assay: In vivo echocardiography of systolic cardiac performance (FS, SWT, HR, LV volumes) after a single oral dose
Conditions: Rattus norvegicus, single dose 10 mg/kg PO, ~2 hrs post-dosing, vs. vehicle
Method: Experiments were performed to evaluate the in vivo ability of the compounds of the disclosure to modulate systolic cardiac performance. Non-invasively echocardiography was used to assess cardiac indicators in isoflurane-anesthetized SD rats. A set of conscious rats were treated with either vehicle control (0 mg/kg PO; n=78) or a single dose of an test compound (10 mg/kg PO, n=2 to 6/compound) via oral gavage. Cardiac function/geometry were recorded at two separate time-points/days: once prior to dosing (i.e., at baseline, day −2) and at ˜2 hrs post-dosing (day 0).
In these experiments, heart rate (HR), echocardiography-derived indices of left-ventricular systolic performance, as well as dimensions/volumes were measured using a high-frequency transducer and parastemnal long-axis transthoracic views (Vevo3100, VisualSonic). LV fractional shortening (FS), an index of systolic function, was defined as the end-diastole normalized change in internal dimensions divided by the […] (LVid) of the left ventricle between end-systole (LVids) and end-diastole (LVidd) (i.e., FS=100·[LVidd−LVids]/LVidd). LV volumes were derived using the Teichholz formula (LVV=7·LVid^3/[2.4+LVid]). In addition, a systolic wall-thickening index (SWT) was also evaluated. SWT is defined as the relative ratio (end-diastole normalized) of left-ventricular (anterior and posterior) wall-thickness change during systole; i.e., SWT=I{[(anterior LV wall thickness in systole−anterior LV wall thickness in diastole)][…][(posterior LV wall thickness in systole−posterior LV wall thickness in diastole)]}/{2*diastolic thickness}. In all cases, blood samples were taken (via either tail-vein micro-sampling or cardiac-puncture) at the time of each echocardiographic examination in order to establish pharmacokinetic (PK)/pharmacodynamics (PD) relationships.

[1] = EDV (LV volume, Teichholz formula), read-out: EDV % vs. VEH
[2] = LV fractional shortening, read-out: FS % vs. VEH
[3] = heart rate, read-out: HR % vs. VEH
[4] = systolic wall-thickening index, read-out: SWT % vs. VEH

Compound | change in vivo at 10 mg/kg [1] [%] | change in vivo at 10 mg/kg [2] [%] | change in vivo at 10 mg/kg [3] [%] | change in vivo at 10 mg/kg [4] [%]
N#Cc1cnc2c(c1)OCC2NC(=O)CN1Cc2c(ccc(F)c2F)NC1=O (single isomer, unassigned) [Compound B65] | 22 | -61 | 22 | -53
CC(NC(=O)CN1Cc2cc(F)ccc2NC1=O)c1ccc(C#N)cc1F (single isomer, unassigned) [Compound B206] | 29 | -67 | 7 | -57
C[C@@H](NC(=O)CN1Cc2c(ccc(F)c2F)NC1=O)c1ncc(C#N)cc1F [Compound B141, (R)—N-(1-(5-cyano-3-fluoropyridin-2-yl)ethyl)-2-(5,6-difluoro-2-oxo-1,4-dihydroquinazolin-3(2H)-yl)acetamide] | -3 | -15 | 13 | -19
O=C(CN1Cc2cc(F)ccc2NC1=O)N[C@@H]1COc2cc(F)cc(F)c21 [Compound B145] | 11 | -42 | 7 | -39
O=C(CN1Cc2c(ccc(F)c2F)NC1=O)N[C@@H]1COc2cc(F)cc(F)c21 [Compound B147] | 10 | -35 | 10 | -37
C[C@H](NC(=O)CN1Cc2c(ccc(F)c2F)NC1=O)c1ccc(C#N)cc1F [Compound B189] | 19 | -13 | -5 | -29
C[C@H](NC(=O)CN1Cc2c(ccc(F)c2F)NC1=O)c1ncc(F)cc1F [Compound B191] | 9 | -59 | 17 | -59
C[C@H](NC(=O)CN1Cc2cc(F)ccc2NC1=O)c1ncc(C#N)cc1F [Compound B199] | 11 | -54 | 22 | -55
C[C@H](NC(=O)CN1Cc2cc(F)ccc2NC1=O)c1ccc(F)cc1F [Compound B247, N-[(1S)-1-(2,4-Difluorophenyl)ethyl]-2-(6-fluoro-2-oxo-1,4-dihydroquinazolin-3-yl)acetamide] | 7 | -31 | 7 | -35
O=C(CN1C(=O)Nc2cccnc2C12CC2)N[C@@H]1COc2cc(F)cc(F)c21 [Compound N33] | 2 | -10 | 6 | -5
